Measured values reported in patent publication US20250340591A1, “COMPOSITION FOR PREVENTING OR TREATING INFLAMMATORY BOWEL DISEASE CONTAINING NOVEL COMPOUND” (ANYGEN CO., LTD., priority 2021, published 2025).

Legend:
[1] = molecular target: T1, TRH (thyrotropin releasing hormone) receptor (TRHR) (Homo sapiens, UniProt P34981); assay: luciferase assay system, ghrelin receptor family selectivity; assay type: cell-based; conditions: compared with intrinsic ligand, FIG. 74
T1 construct: expressed in transfected cells
T1 sequence (P34981 1-398): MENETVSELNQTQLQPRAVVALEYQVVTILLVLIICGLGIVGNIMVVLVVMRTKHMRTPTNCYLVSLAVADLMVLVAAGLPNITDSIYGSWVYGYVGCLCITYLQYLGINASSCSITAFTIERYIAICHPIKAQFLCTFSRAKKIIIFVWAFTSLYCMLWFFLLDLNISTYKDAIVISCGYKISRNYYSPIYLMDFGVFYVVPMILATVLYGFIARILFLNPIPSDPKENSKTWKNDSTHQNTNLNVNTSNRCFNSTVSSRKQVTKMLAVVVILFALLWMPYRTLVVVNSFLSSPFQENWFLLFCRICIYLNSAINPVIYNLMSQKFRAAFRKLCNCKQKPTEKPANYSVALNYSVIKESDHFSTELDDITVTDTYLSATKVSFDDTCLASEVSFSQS
Protocol: In addition, through the activity test of the HKFY derivatives for similar receptors to GPR39, ghrelin receptor family (ghrelin receptor (GHSR), motilin receptor (MTLR), neurotensin receptor (NTSR1 & NTSR2), neuromedin U receptor (NMU1 & NMU2), TRH (thyrotropin releasing hormone) receptor (TRHR)), the selectivity and specificity for the GPR39 receptor were confirmed.
Specifically, the degree of activity between the intrinsic ligand and HKFY-34 for each receptor was analyzed using a luciferase assay system (FIG. 74).

HT-29 cells [2] = assay: cell proliferation of HT-29 intestinal epithelial cells (Cellvia kit, BrdU kit); assay type: cell-based; conditions: different concentrations, 24, 48 and 72 hours, FIG. 75
Protocol: It is known from studies using GPR39 deficient mice that GPR39 is involved in the growth and differentiation of intestinal tissue cells (Phil. Trans. R. Soc. B., 2016, 371:20150420). Therefore, in order to confirm the effect of HKFY-34 on the growth of intestinal tissue cells, the degree of cell proliferation by HKFY-34 was measured using HT-29 cells (Korea Cell Line Bank), which are intestinal epithelial cells.
Specifically, HT-29 cells were cultured in a 96 well plate and then treated with HKFY-34 at different concentrations for 24, 48, and 72 hours. The cell proliferation of the cultured cells was measured using a Cellvia kit (AB frontier) and a BrdU cell proliferation kit (abcam).

HT-29 cells [3] = assay: calcium ion concentration in HT-29 cells (Fluo-8); assay type: cell-based; conditions: 10 uM, vs untreated group (vehicle), FIG. 76
Protocol: It is known from studies using GPR39 deficient mice that calcium signaling is involved in the growth of intestinal tissue cells by GPR39 (Phil. Trans. R. Soc. B. 2016, 371:20150420). Therefore, it was confirmed whether calcium signaling is involved in the cell growth promoted by HKFY-34.
Specifically, HT-29 cells were cultured in a 96-well black culture plate and then treated with HKFY-34, and the calcium ion concentration in the cells was measured using a Fluo-8 Direct™ calcium assay kit (Thermo Fisher Scientific). As a result, the calcium ion concentration in HT-29 cells was increased by HKFY-34 compared to the untreated group (vehicle) (FIG. 76).

HT-29 cells [4] = assay: tight junction factor (ZO-1, occludin) expression in HT-29 cells, qPCR and Western blot; assay type: cell-based; conditions: HT-29, different concentrations, vs vehicle
Protocol: It is known that GPR39 is involved in the protection of the gastrointestinal tract (Phil. Trans. R. Soc. B., 2016, 371:20150420). Therefore, in order to confirm the effect of HKFY-34 on the gastrointestinal tract protective function by GPR39, the promoting activity of HKFY-34 on tight junction was evaluated using HT-29 cells, which are important for intestinal tissue formation.
Specifically, the HT-29 cells were treated with HKFY-34 at different concentrations, and then the expression levels of mRNA (FIG. 77) and protein (FIG. 78) of ZO-1 and occludin, which are important factors of tight junction in intestinal barrier function, were confirmed through quantitative RT-PCR (qPCR) and Western blot.

[5] = system: ulcerative colitis-induced wild type mice; assay: DSS-induced ulcerative colitis in wild type littermate mice; assay type: in vivo
Protocol: (§1) In order to confirm the effect of HKFY-34 in an inflammatory bowel disease model using GPR39 as a target substance, a disease model of ulcerative colitis was prepared using GPR39 deficient mice (GPR39 knock out (KO), Gpr39^−/−). At this time, wild type mice born from a litter were set as a control group for each treated group of GPR39 deficient mice.
(§2) Specifically, an animal model of ulcerative colitis was prepared by feeding GPR39 deficient mice (Lexicon pharmaceuticals) and wild type mice with water containing 3% DSS in the same manner as in Experimental Example 7. GPR39 KO mice fed with only DSS (vehicle+3% DSS) were set as a negative control group, and GPR39 KO mice administered with HKFY-34 (10 mg/kg) (HKFY-34 10 mg/kg+3% DSS) were set as a test group. Intraperitoneal administration was performed once a day for 5 days.

[6] = system: ulcerative colitis-induced GPR39 deficient mice (Gpr39−/−); assay: DSS-induced ulcerative colitis in GPR39 deficient mice; assay type: in vivo
Protocol: as §1, §2

GPR39 = molecular target: T2, GPR39 (Homo sapiens, UniProt O43194); assay: calcium influx assay system (aequorin, CV-1 cells); assay type: cell-based; set-up: host or cells: CV-1 fibroblast cell line, lipofectamine transfection; conditions: CV-1 transfected with hGPR39, Gαq
T2 sequence (O43194 1-453): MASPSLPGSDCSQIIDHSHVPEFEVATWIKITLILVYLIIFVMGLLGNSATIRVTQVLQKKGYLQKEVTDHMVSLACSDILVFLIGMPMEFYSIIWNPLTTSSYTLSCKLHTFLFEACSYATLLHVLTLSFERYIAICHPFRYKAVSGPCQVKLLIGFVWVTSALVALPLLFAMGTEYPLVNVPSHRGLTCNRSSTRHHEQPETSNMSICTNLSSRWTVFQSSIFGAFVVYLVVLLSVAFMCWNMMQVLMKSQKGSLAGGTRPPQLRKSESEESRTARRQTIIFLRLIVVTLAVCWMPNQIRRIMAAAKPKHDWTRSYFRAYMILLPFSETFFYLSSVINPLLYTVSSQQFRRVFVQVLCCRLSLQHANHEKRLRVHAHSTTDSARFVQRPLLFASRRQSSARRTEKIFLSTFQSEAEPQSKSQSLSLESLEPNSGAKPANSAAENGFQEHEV
Text: After culturing, the degree of binding of calcium activated by activated GPR39 to aequrin was quantified using a luminometer (bottom in FIG. 73).

[7] = 10 mg/kg intraperitoneal for 5 days, FIG. 92
[8] = 10 mg/kg intraperitoneal for 5 days, FIG. 95
[9] = 10 mg/kg intraperitoneal once a day for 5 days, 3% DSS, FIG. 91

CCCCCCCC(=O)NCCCC[C@H](NC(=O)[C@@H](N)Cc1cn(C(c2ccccc2)c2ccccc2)cn1)C(=O)N[C@H](Cc1ccc(C)cc1)C(=O)N[C@@H](Cc1ccc(O)cc1)C(=O)O [HKFY-34, ((R)-2-((S)-2-((S)-2-amino-3-(1-benzhydryl-1H-imidazol-4-yl)propanamido)-6-octanamidohexanamido)-3-(p-tolyl)propanoyl)-L-tyrosine]
activity for TRHR [1]: very low | proliferation of HT-29 cells (HT-29 cells [2]): increased by HKFY-34 in a dose-dependent manner | calcium ion concentration in HT-29 cells (HT-29 cells [3]): increased | protein expression level of ZO-1 (HT-29 cells [4]; Western blot, FIG. 78): significantly increased by HKFY-34 in a dose-dependent manner | protein expression level of occludin (HT-29 cells [4]; Western blot, FIG. 78): significantly increased by HKFY-34 in a dose-dependent manner | mRNA expression level of ZO-1 (HT-29 cells [4]; qPCR, FIG. 77): significantly increased by HKFY-34 in a dose-dependent manner | mRNA expression level of occludin (HT-29 cells [4]; qPCR, FIG. 77): significantly increased by HKFY-34 in a dose-dependent manner | decrease in colon length [5, 7]: inhibited | damage due to inflammation of colon tissue (H&E staining) [5, 8]: reduced | body weight loss [5, 9]: inhibited | inhibitory effect on the reduction of colon length [6, 7]: not observed | effect of reducing inflammatory damage of colon tissue (H&E staining) [6, 8]: not observed | inhibitory effect on body weight loss [6, 9]: no inhibitory effect | effect of alleviating stool consistency ([6]; 10 mg/kg intraperitoneal, vs negative control, FIG. 93): not observed | effect of alleviating blood in stool ([6]; 10 mg/kg intraperitoneal, vs negative control, FIG. 94): not observed | Ca2+ influx assay ECmax (−fold induction over basal) (GPR39): 2.4 ± 4.59 fold induction over basal
